Laboratory results from US12403132B2, “Methods of treating bone marrow failure syndromes and compositions for use in the same” (The Board of Trustees of the Leland Stanford Junior …, priority 2020, dated 2025).

Assays:
[1] = system: CD235+ erythroblasts; experiment: CD235+ erythroid expansion of differentiating human cord blood CD34+ progenitors (shRPS19/shRPL11 DBA models), flow cytometry; type: cell-based
[2] = system: c-Myb; experiment: c-Myb protein and phosphorylation by Western blot after p53 activation in Kp53A1 cells; type: cell-based, human
[3] = system: c-Myb; experiment: NLK kinase and ubiquitination assays with c-Myb as substrate, Kp53A1 cells; type: cell-based, human
From the text: FIG. 4. NLK phosphorylation of c-Myb results in ubiquitination and proteasome degradation. Fetal liver CD34+ progenitors transduced with shRNA against luciferase (shLuc) or RPS19 (shRPS19) in conjunction with siRNA against NLK (siNLK) or a non-targeting sequence (NT). Cells were differentiated for 5 days and split into three aliquots. One aliquot was lysed and probed for c-Myb, NLK, RPS19 and GAPDH protein expression by western blot, while the second aliquot was subjected to qRT-PCR to examine c-Myb mRNA expression (a) The third aliquot was analyzed for NLK activity by kinase assay (b—upper) and ubiquitination assay (b—lower). Orange, blue and green bars represent the extent of NLK, Myb and raptor phosphorylation respectively. Values are expressed as a fold relative to activity in controls (shLuc/NT). White, grey and black bars designate the substrates NLK, c-Myb and raptor respectively with values designating the extent of ubiquitination observed of each substrate relative to control. (c and d) Kp53A1 cells alone, or transfected with plasmids expressing NT or siNLK were cultured for 30 h at 37 or 32° C. prior to lysis and western blotting for c-Myb, NLK and GAPDH. Myb mRNA levels were determined by qRT-PCR. (c) and NLK kinase assays and cell ubiquitination assays were performed as above. (e) Kp53A1 cells were cultured at 37 (grey bars) or 32° C. […]

[4] = system: CD235+ erythroblasts; experiment: CD235+ erythroid expansion of differentiating human cord blood CD34+ progenitors (shRPS19/shRPL11 DBA models), flow cytometry; type: cell-based; conditions: control (shLuc), exogenous TGFβ 5 ng/ml
Description: FIG. 7. […] (a) Differentiating cord blood CD34+ progenitors were transduced with shRNA against luciferase or RPS19 and treated with inhibitors at working concentrations for TGFβ inhibition every three days. Cells were counted and CD235+ erythroid cells were assessed by flow cytometry after 15 days. (b) Prior to flow cytometry, 5000 cells per group were taken from differentiating cultures for NLK kinase assay. (c) CD34+ progenitors were transduced with shRNA against luciferase or RPS19 and non-targeting or siRNA against NLK. After sorting, samples were split into two groups and either treated with vehicle or SD208 every three days. After 15 days cells were counted and subject to flow cytometry to compare the expansion of maturing CD235+ erythroid (left panel) and CD11b+ myeloid cells (right panel). (d) Cord Blood CD34+ progenitors were transduced with shRNA against luciferase (left panel) or RPS19 (right panel) differentiated in erythroid media for 15 days alone, or in the presence of SB525334 or SD208 at 5 μM. Cells were counted and CD235+ erythroid (D—upper) and CD11b+ myeloid cell (D—lower) percentages were determined by flow cytometry. The number of erythroid or myeloid cells is expressed as a percentage of the number of that lineage with no cytokine or drug treatment.
FIG. 8. […] Human cord blood CD34+ progenitors were transduced with lentivirus co-expressing GFP with shRNA against luciferase (shLuc), RPS19 (shRPS19) or RPL11 (shRPL11). After 36 hours cells GFP+ cells were differentiated in erythroid media in the presence or absence of 5 μM SD208 for 15 days. Cells were counted and assessed for cell surface expression of CD235. (a) The percentage of CD235+ cells was multiplied by the cell count and values were compared as a percentage of untreated controls. (b) Normalizing values relative to untreated RPS19-insufficiency progenitors facilitates direct comparison of erythropoiesis between untreated and SD208-treated cultures. (c) Approximately 3000 cells were removed from differentiating treatments at day 6 and NLK activity was assessed. Values were normalized to reflect a fold induction relative to untreated controls. (d) Lin-Kit+ hematopoietic progenitors were obtained from three mouse embryos expressing tetracycline-inducible shRNA against RPS19 at day E14.5 or three untreated mice, and thee mature RPL11^+/+ or three mature RPL11^+/lox mice treated with tamoxifen for eight weeks. Cells were grown in the presence or absence of doxycycline and/or SD208 for eight days prior to counting and assessing for ter119 surface expression. Values were expressed as a percentage relative to untreated controls (e) and directly comparing the effect of SD208 on erythropoiesis in ribosomal-insufficiency by expressing values relative to untreated ribosome-insufficient cultures (f). At day 5 approximately 3000 cells were assayed for NLK kinase assay (g). CD34+ HSPCs were isolated from three healthy control and three DBA patient mononuclear bone marrow aspirates by magnetic bead sorting and differentiated in the presence or absence of SD208 for 14 days. After counting the total cell population, the ratio of CD235+ erythroblasts was determined by flow cytometry and number of CD235+ erythroblasts calculated. This was expressed as a percentage of the average number of erythroid cells present in untreated healthy controls. (h) The direct effect of SD208 on erythroid expansion in DBA patient samples was calculated following normalization of untreated DBA patient samples as 1-fold, (i) At day five, 3000 cells from each of the differentiating cultures was analyzed for NLK activity by kinase assay and are expressed as a fold induction relative to untreated healthy controls.

[5] = system: CD11b+ myeloid cells; experiment: CD11b+ myeloid expansion of differentiating human cord blood CD34+ progenitors; type: cell-based; conditions: control (shLuc), exogenous TGFβ 5 ng/ml
Description: FIG. 7. SD208 increases erythroid expansion in human model of DBA through inhibition of NLK and not TGFβ. (a) Differentiating cord blood CD34+ progenitors were transduced with shRNA against luciferase or RPS19 and treated with inhibitors at working concentrations for TGFβ inhibition every three days. Cells were counted and CD235+ erythroid cells were assessed by flow cytometry after 15 days. (b) Prior to flow cytometry, 5000 cells per group were taken from differentiating cultures for NLK kinase assay. (c) CD34+ progenitors were transduced with shRNA against luciferase or RPS19 and non-targeting or siRNA against NLK. After sorting, samples were split into two groups and either treated with vehicle or SD208 every three days. After 15 days cells were counted and subject to flow cytometry to compare the expansion of maturing CD235+ erythroid (left panel) and CD11b+ myeloid cells (right panel). […] Cells were counted and CD235+ erythroid (D—upper) and CD11b+ myeloid cell (D—lower) percentages were determined by flow cytometry. The number of erythroid or myeloid cells is expressed as a percentage of the number of that lineage with no cytokine or drug treatment.
FIG. 9. […] Cells were counted and the percentage expressing CD235+ erythroid (left) and CD11b+ myeloid (right) was determined by flow cytometry. […] Values are expressed as a fold induction relative to untreated. (Panel C) Transduced and sorted CD34+ progenitors were cultured in methylcellulose in the presence or absence of metformin for 16 days and BFU-E erythroid (left) and CFU-GM myeloid (right) colonies scored. […] To directly compare the effect of metformin in each group, metformin-treated cultures were normalized to untreated cultures and are expressed as a fold induction of the untreated control. […]
Cells were incubated with human Fc receptor binding inhibitor (#14-9161-73; eBioscience) followed by primary antibodies CD235-APC (#306607; BioLegend) and CD11b-PE/Cy5 (#101209; BioLegend). Data were collected on a DxP10 flow cytometer (Cytek) and analyzed by using FlowJo Software, v.9.7.2.

Question: With `Cc1cccc(-c2[nH]c(C(C)(C)C)nc2-c2ccc3c(c2)OCO3)n1` [SB505124] as the compound, how does the “erythroid and myeloid expansion restored, % of cultures not treated with TGFβ” value ([1]; TGFβ-treated control and RPS19-insufficiency, 5 μM) read?
Answer: Its value is “at least 95%”.

Question: With `CC(=O)N[C@@H](CSC(=O)[C@]1([C@@H](O)C(C)C)NC(=O)[C@H](C)[C@@H]1O)C(=O)O` [lactacystin] as the compound, how does the c-Myb protein levels ([2]; Kp53A1, 16 hours post p53 activation, lactacystin 10 μM, chloroquine 30 μM) read?
Answer: The c-Myb protein levels was “sustained”.

Question: And the c-Myb phosphorylation ([2]; Kp53A1, after p53 activation, up to 48 h)?
Answer: The c-Myb phosphorylation was “sustained phosphorylation to 48 h”.

Question: With `CN[C@@H]1C[C@H]2O[C@@](C)([C@@H]1OC)n1c3ccccc3c3c4c(c5c6ccccc6n2c5c31)C(=O)NC4` [staurosporine] as the compound, how does the “c-Myb phosphorylation, fold increase relative to controls” value ([3]; 1 µM) read?
Answer: Its value is 1.3 fold.

Question: What about the “c-Myb ubiquitination, fold of control” value ([3]; Kp53A1 lysate with elevated p53 activity, 1 μM staurosporine, 7.4-fold without inhibitor) of the same compound?
Answer: Its value is 2.3 fold.

Question: For TGFβ: exogenous TGFβ (5 ng/ml), which “reduction of erythroid progenitors” value [4] is on record?
Answer: The value was 85%.

Question: What about the “additional reduction of erythroid expansion” value ([1]; RPS19-insufficient progenitors, exogenous TGFβ) of the same compound?
Answer: The value was 86%.

Question: What about the “reduction of myeloid progenitors” value [5] of the same compound?
Answer: The value was 80%.
